In patent US20120064519A1, “SYSTEM AND METHOD FOR DUAL-DETECTION OF A CELLULAR RESPONSE” (priority 2007, published 2012):

Tested on: A431 cells
Assay: EW-excited fluorescence of IRDye labeled EGF interacting with A431 cells on RWG biosensor microplate
Assay type: cell-based, human
Description: 384-well Epic® cell assay microplates were obtained from Corning Inc. (Corning, N.Y.). The surface of each Epic® cell assay microplate is tissue culture compatible and enables the attachment and normal growth of adherent cells, including native cells, recombinant or engineered cell lines, primary cells, and like cells.
Cell culturing—Human epidermoid carcinoma A431 cells (American Type Cell Culture) were grown in Dulbecco's modified Eagle's medium (DMEM) supplemented with 10% fetal bovine serum (FBS), 4.5 g/liter glucose, 2 mM glutamine, and antibiotics. About 1.5 to about 2×10^4 cells at passage 3 to 15 suspended in 200 microliters of the DMEM medium containing 10% FBS were placed in each well of a 384-well microplate. After cell seeding, the cells were cultured at 37° C. under air/5% CO2 until about 95% confluency was reached (about 1-2 days). The confluent cells were washed with serum-free medium and incubated in the same medium at 37° C. under air/5% CO2 for 20 hours. On the day of assay, the cells were washed with HBSS (Hanks Balanced Salt Solution with 20 mM HEPES) buffer. The resulting A431 cells were assayed without or with pretreatment with modulators including, for example, AG1478, dynamin inhibitory peptide (DIPC), or unlabeled EGF. The EGFR was activated with the IRDye® labeled EGF and the resultant DMR signals were then recorded.
Optical system—An optical detection system is constructed and used for dual-detection of both EW-based labeled-free signal and EW-excited fluorescence of IR dye molecules as shown in FIG. 2C.
FIGS. 12A to 12D show measured fluorescence intensities of A431 cells cultured on the biosensor microplate surfaces in response to stimulation with IRDye® labeled EGF (64 nM), as a function of time.

[1] = pretreatment 10 micromolar for 1 hr, then IRDye labeled EGF 64 nM (FIG. 12C)

COc1cc2ncnc(Nc3cccc(Cl)c3)c2cc1OC [AG1478]
effect on decay phase in fluorescence intensity [1]: completely blocked | effect on initial increase phase in fluorescence intensity [1]: complicated effects

unlabeled EGF: epidermal growth factor; causes receptor internalization and desensitization; obtained from Sigma
effect on both the increase and decrease phase in fluorescence intensity (pretreatment 32 nM for 1 hr, then IRDye labeled EGF 64 nM (FIG. 12D)): almost completely blocked

IRDye-EGF: near-infrared (NIR) labeled recombinant human epidermal growth factor, 54 amino acid residues, conjugated with the IRDye fluorophore; LI-COR Biosciences
fluorescence intensity as a function of time (IRDye labeled EGF 64 nM, A431 cells without any pretreatment (FIG. 12A)): an initial increase in fluorescence; and thereafter by a slow decrease in fluorescence
